Test [1] concerns splenocytes, CD11c-positive splenic DCs and BMDCs. Put plainly: MHC class II-restricted presentation of ovalbumin to OT-II CD4+ T cells (IL-2 ELISA). It is filed as cell-based, mouse. How it is done:
FIG. 17F is a bar chart showing 11-2 production of CD11c^+ splenocytes incubated for 24 hours with BMS212122 or bone marrow derived dendritic cells incubated for 3 days with BMS212122 were washed and co cultured with 100 μg/mL ovalbumin and 100,000 CD4^+ cells from an OT-II transgenic mouse. IL-2 concentrations were measured by ELISA of 24 hour culture supernatants.
(§1) APCs were incubated with 100 ng/mL α-galcer (kindly provided by Dr. H. Ploegh) for 3 hours, washed three times in PBS and aliquoted into a 96 well plate at 10^6 cells/mL. DN32 cells were added at 1:1 E:T ratio unless otherwise indicated. CD4^+ cells were isolated from spleens of OT-II transgenic mice using positive selection on CD4 magnetic beads (Miltenyi Biotec) and incubated with APCs and 100 μg/mL ovalbumin. The 24.8 NKT cell line was incubated with APCs in the absence of added antigen at E:T=2:1 unless otherwise indicated. Mouse IL-2 production was assessed by ELISA (OptEIA, BD PharMingen) of 24 or 40 hour culture supernatants. APCs were treated with BMS212122 (10 uM dissolved in DMSO; kindly provided by Bristol Myers Squibb, New Jersey) as indicated and washed prior to addition of T or NKT cells. […]
In general terms: In an ELISA, binding on a coated surface is turned into a signal by an enzyme label.

The test system of the next test is BMDCs. The test is described as follows: Bone marrow derived dendritic cell presentation to 24.8 and DN32 NKT cells (IL-2 ELISA). It is filed as cell-based, mouse. To be noted: BMDCs cultured with inhibitor from day 6 to day 10. How it is done: FIG. 17D is a line graph showing IL-2 production in bone marrow derived dendritic cells incubated for 4 days with BMS212122 (◯) or vehicle (●) were treated with α-galcer for 3 hours, washed and co cultured with DN32. IL-2 concentrations were measured by ELISA of 24 hour culture supernatants. *, p<0.01.
APCs were incubated with 100 ng/mL α-galcer (kindly provided by Dr. H. Ploegh) for 3 hours, washed three times in PBS and aliquoted into a 96 well plate at 10^6 cells/mL. DN32 cells were added at 1:1 E:T ratio unless otherwise indicated. CD4^+ cells were isolated from spleens of OT-II transgenic mice using positive selection on CD4 magnetic beads (Miltenyi Biotec) and incubated with APCs and 100 μg/mL ovalbumin. […] Mouse IL-2 production was assessed by ELISA (OptEIA, BD PharMingen) of 24 or 40 hour culture supernatants. […]
Bone marrow was extracted from the femurs of C57BL6 or MTPmx1cre mice, washed once in PBS and resuspended in R10 supplemented with culture supernatant from murine GM-CSF transfected cells for a final concentration of 200 U/mL GM-CSF. […] Differentiated cells were harvested by gentle pipetting, washed in PBS, and analyzed by flow cytometry for surface expression of CD11c and I-A^b. […] After 5 days cells were dislodged by gentle pipetting, analyzed by flow cytometry and assayed for antigen presentation. […]

Another test concerns C1Rd cells. The test is described as follows: C1Rd cell presentation of α-galcer to DN32 NKT cells (IL-2 ELISA). It is filed as cell-based, human. To be noted: C1Rd cells cultured 5 days with inhibitor. The method, then: FIG. 20D is a bar chart showing IL-2 production in C1Rd cells cultured with BMS212122 or vehicle for 5 days that were incubated with α-galcer for 3 hours IL-2 concentrations were measured by ELISA of 24 hour culture supernatants. *, p<0.02.
as §1
C1Rd is a human B cell line transfected with human CD1d. […] Incubation of C1Rd cells with BMS212122, but not the vehicle, inhibited the presentation of α-galcer as determined by a reduction in IL-2 secretion (FIG. 20D).

In the next test the test system is HepG2 cells. Conditions: cited from earlier work.

With `Cc1ccc2c(nc(C)n2CCCCC2(C(=O)NCC(F)(F)F)c3ccccc3-c3ccccc32)c1NC(=O)c1ccccc1-c1ccc(C(F)(F)F)cc1` [BMS212122, 9-[4-[2,5-Dimethyl-4-[[[4′-(trifluoromethyl)[1,1′-biphenyl]-2-yl]carbonyl]amino]-1H-benzimidazol-1-yl]butyl]-N-(2,2,2-trifluoroethyl)-9H-fluorene-9-carboxamide], the “presentation of ovalbumin to CD4+ MHC class II-restricted ovalbumin-specific T cells” value in test [1] (CD11c-positive splenic DCs and BMDCs, inhibitor-treated) was “efficient presentation”. The “splenocyte presentation of ovalbumin to MHC class II-restricted T cell line OT-II” value in test [1] (splenocytes, 24 hours inhibitor) is recorded as “no effect”. The “presentation of α-galcer to DN32 cells” value with BMDCs is “significant effect”. Further, the “presentation of α-galcer (IL-2 secretion)” value in the test on C1Rd cells is “inhibited”. Also, the “secretion of apoB from HepG2 cells” value in the test with HepG2 cells is reported as “prevents secretion”.
